The values below come from publication PMC6362850 (European journal of medicinal chemistry, 2018).

One series has as its target T1, HBV Cp (Hepatitis B virus genotype D subtype ayw, UniProt P03146, R150C).
Experiment: not given
Type of series: binding.
Details: not given
For the molecule “5-Amino-4-carbamothioyl-N-(3,4-difluorophenyl)-3-methylthiophene-2-carboxamide [Compound 13]”, the “Cp binding in TSA, in words” value is given as “Strong binding”.

As for `Cc1c(C(=O)Nc2ccccc2)sc(NC(=O)N2CCOCC2)c1C(N)=O` [Compound 12a, 3-Methyl-5-(morpholine-4-carboxamido)-N2-phenylthiophene-2,4-dicarboxamide], the “Cp binding in TSA, in words” value was “completely inactive”.

For the molecule `Cc1c(C(=O)Nc2ccccc2)sc(-n2cnnn2)c1C(N)=O` [Compound 12k], the “Cp binding in TSA, in words” value was “completely inactive”.

Regarding `Cc1c(C(=O)Nc2ccc(F)cc2)sc(N)c1C(N)=O` [Compound 19e], the “Cp binding in TSA, in words” value was “strong Cp binding”.

In the case of `Cc1c(C(=O)Nc2ccccc2)sc(N)c1C#N` [Compound 14a], the “Cp binding in TSA, in words” value is reported as “loss of binding affinity”.

Consider `Cc1c(C(=O)NCc2ccccc2)sc(N)c1C(N)=O` [Compound 19a], for which the “Cp binding in TSA, in words” value is listed as “strong Cp binding was preserved”.

Consider `Cc1c(C(=O)Nc2cc(F)c(F)c(Cl)c2)sc(N)c1C#N` [Compound 14d], for which the “Cp binding in TSA, in words” value is reported as “loss of binding affinity”.

On to `Cc1c(C(=O)Nc2ccc(F)c(F)c2)sc(N)c1C(=O)NC1CCCC1` [Compound 16m], for which the “Cp binding in TSA, in words” value was “retained strong Cp binding”.

With `Cc1cc(NC(=O)c2sc(N)c(C(N)=O)c2C)ccc1F` [Compound 19h], the “Cp binding in TSA, in words” value is recorded as “only the denaturation peak corresponding to fully assemble capsid was observed”.

On to `COc1ccc(NC(=O)c2sc(N)c(C(N)=O)c2C)cc1` [Compound 19b], for which the “Cp binding in TSA, in words” value is “Cp binding was preserved”.

Tested on in a further series: not listed separately
The series is described as follows: Aqueous solubility assay in DPBS. The following applies: thermodynamic, 72 h, ambient temperature. Type of series: physicochemical.
On to `Cc1c(C(=O)Nc2ccc(F)c(C#N)c2)sc(N)c1C(N)=O` [Compound 19l], for which the “Aqueous Solubility” value was “poor aqueous solubility”.

As to `Cc1c(C(=O)Nc2ccc(F)c(F)c2)sc(N)c1C(N)=O` [Compound 19g], the “Aqueous Solubility” value is on record as “poor aqueous solubility”.

On to `Cc1c(C(=O)Nc2ccc(F)c(C(F)F)c2)sc(N)c1C(N)=O` [Compound 19o], for which the “Aqueous Solubility” value was “poor aqueous solubility”.

A further series concerns the target HBV capsid (Hepatitis B virus genotype D subtype ayw, UniProt P03146, R150C). The series is described as follows: Transmission electron microscopy of HBV capsid assembly. The following applies: compared to DMSO control. It counts as biochemical.
Take `Cc1cc(NC(=O)c2sc(N)c(C(N)=O)c2C)ccc1F` [Compound 19h]: the “Effect on HBV capsid assembly (TEM)” value is reported as “promoted the aggregation of HBV capsid”.

Another series deals with T1, HBV Cp.
Experiment: not given
The note with it: HTS of commercial libraries; cited from earlier work.
As for `Cc1c(C(=O)Nc2ccccc2)sc(N)c1C(N)=O` [Compound 11, 5-Amino-3-methyl-N2-phenylthiophene-2,4-dicarboxamide], the “Binding to HBV Cp in TSA (HTS), in words” value was “strong binder”.
